ChEMBL document CHEMBL1201862, “PubChem BioAssay data set” (2004)
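Cultured in 96-well plates, cells were exposed to test compound for 48 hours across five concentrations. Here, GI50 denotes the concentration required for 50% inhibition of growth.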 Calls of active or inactive are those of the source. Rule as the data show it: active = GI50 up to about 1.1 µM and inactive = higher.

Assays:
Experiment in all cases: NCI tumour cell line growth inhibition, 48 h
[1] = system: SNB-78
[2] = system: DMS-273
[3] = system: DLD-1
[4] = system: HOP-18
[5] = system: DMS-114
[6] = system: XF498
[7] = system: KM-20L2
[8] = system: LXFL 529
[9] = system: RXF 631

Compound	GI50 [1]	GI50 [2]	GI50 [3]	GI50 [4]	GI50 [5]	GI50 [6]	GI50 [7]	GI50 [8]	GI50 [9]
Cn1c(=O)[nH]c2nncnc2c1=O	151 µM (inactive)	21.6 µM (inactive)	384 µM (inactive)	13.5 µM (inactive)	126 µM (inactive)	54.2 µM (inactive)	55.2 µM (inactive)	–	–
O=C(Nc1ccc(Cl)cc1Cl)OC(Cn1cncn1)c1ccc(Cl)cc1Cl (stereo unspecified)	15.6 µM (inactive)	17.4 µM (inactive)	18.5 µM (inactive)	23.8 µM (inactive)	16 µM (inactive)	14.7 µM (inactive)	16.5 µM (inactive)	16.2 µM (inactive)	18.2 µM (inactive)
CSc1nc(CO)c(CO)n1C	> 100 µM (inactive)	> 100 µM (inactive)	> 100 µM (inactive)	> 100 µM (inactive)	> 100 µM (inactive)	> 100 µM (inactive)	> 100 µM (inactive)	–	–
CCP(C)(C)=O	> 100 µM (inactive)	> 100 µM (inactive)	> 100 µM (inactive)	–	> 100 µM (inactive)	> 100 µM (inactive)	> 100 µM (inactive)	> 100 µM (inactive)	–
N#CCc1ccc(/C(C#N)=C2/OC(=N)C(c3ccc(CC#N)cc3)C2=O)cc1 (stereo unspecified)	> 100 µM (inactive)	> 100 µM (inactive)	> 100 µM (inactive)	–	> 100 µM (inactive)	> 100 µM (inactive)	> 100 µM (inactive)	> 100 µM (inactive)	> 100 µM (inactive)
COC(=O)Cc1cc(OC)c(OC)cc1Br	> 100 µM (inactive)	–	> 100 µM (inactive)	–	> 100 µM (inactive)	–	> 100 µM (inactive)	> 100 µM (inactive)	–
CO[C@@H]1[C@H](OC(=O)NC(=O)CCl)CC[C@]2(CO2)[C@H]1[C@@]1(C)O[C@@H]1CC=C(C)C [O-CHLOROACETYLCARBAMOYLFUMAGILLOL]	> 10 µM (inactive)	7.11 µM (inactive)	8.83 µM (inactive)	> 10 µM (inactive)	7.03 µM (inactive)	6.35 µM (inactive)	16.6 µM (inactive)	1.78 µM (inactive)	1.67 µM (inactive)
Cc1ccc(C(=O)OC(C)C)cc1/N=N/N(C)C	55.3 µM (inactive)	56.5 µM (inactive)	> 100 µM (inactive)	–	–	–	55.5 µM (inactive)	66.5 µM (inactive)	–
C[S+](C)C1(c2ccccc2)C(=O)c2ccccc2C1=O	> 100 µM (inactive)	> 100 µM (inactive)	> 100 µM (inactive)	> 100 µM (inactive)	> 100 µM (inactive)	32.4 µM (inactive)	> 100 µM (inactive)	> 100 µM (inactive)	–
O=c1[c-](-c2ccccc2)[se]c(-c2ccccc2)[n+]1-c1ccccc1	3.81 µM (inactive)	19.1 µM (inactive)	2 µM (inactive)	11.5 µM (inactive)	4.69 µM (inactive)	–	–	13.5 µM (inactive)	13.6 µM (inactive)
Cc1cc2c(cc1C)[n+]([O-])c(C(=O)C/C(=N/NC(=O)CC#N)C(=O)Nc1ccccc1C(F)(F)F)c(C)[n+]2[O-]	2.59 µM (inactive)	53.6 µM (inactive)	–	> 100 µM (inactive)	28.6 µM (inactive)	82.2 µM (inactive)	37.5 µM (inactive)	45.6 µM (inactive)	16.9 µM (inactive)
COc1cc(OC)cc(-c2cc(O)c3cc4c(cc3n2)OCO4)c1	0.295 µM (active)	0.306 µM (active)	0.311 µM (active)	16.3 µM (inactive)	0.218 µM (active)	0.152 µM (active)	0.217 µM (active)	0.211 µM (active)	–
O=C1C=C(Nc2ccc(Br)cc2)c2ccccc2C1=O	–	12.2 µM (inactive)	–	–	4.65 µM (inactive)	–	23 µM (inactive)	12.5 µM (inactive)	–
CC(C)(C)c1cc(CCC(=O)Nc2ccc(Cl)cc2)nc(NC#N)n1	> 100 µM (inactive)	> 100 µM (inactive)	> 100 µM (inactive)	> 100 µM (inactive)	–	–	> 100 µM (inactive)	> 100 µM (inactive)	–
CC(=O)Nc1ccc(Cl)c(Cl)c1	> 100 µM (inactive)	> 100 µM (inactive)	> 100 µM (inactive)	–	> 100 µM (inactive)	–	> 100 µM (inactive)	> 100 µM (inactive)	–
Cc1ccc(C)c(C(=O)CC2OC(O)C(Cl)C2Cl)c1 (stereo unspecified)	60.1 µM (inactive)	63.1 µM (inactive)	17.1 µM (inactive)	> 100 µM (inactive)	> 100 µM (inactive)	> 100 µM (inactive)	> 100 µM (inactive)	17.4 µM (inactive)	–
COC(=O)C1=C(c2ccc3c(c2)OCO3)O[C@H](c2ccc3c(c2)OCO3)[C@H]1COC(C)=O	66.1 µM (inactive)	56.2 µM (inactive)	35.7 µM (inactive)	36.6 µM (inactive)	57.9 µM (inactive)	41.8 µM (inactive)	71.1 µM (inactive)	32.3 µM (inactive)	–
NC1=NN(c2ccccc2)C(=O)C1/C(=N\NC(=O)c1cc2ccccc2cc1O)C(=O)Nc1ccc(Cl)c(Cl)c1 (stereo unspecified)	23.8 µM (inactive)	11.6 µM (inactive)	30.5 µM (inactive)	31.6 µM (inactive)	25.2 µM (inactive)	25.1 µM (inactive)	32.5 µM (inactive)	34.4 µM (inactive)	–
Cc1cccc2nc3cccc(C(=O)NCCN(C)C)c3nc12	0.802 µM (active)	0.42 µM (active)	0.444 µM (active)	2.4 µM (inactive)	1.06 µM (active)	–	–	–	–
C[N+](C)(C)CC1CCCC(C[N+](C)(C)C)C1=O (stereo unspecified)	2.39 µM (inactive)	3.4 µM (inactive)	0.105 µM (active)	0.494 µM (active)	1.77 µM (inactive)	0.411 µM (active)	0.855 µM (active)	0.177 µM (active)	1.96 µM (inactive)
COc1ccc2c(c1O)-c1cc(O)cc3c1[C@@H](C2)N(C)CC3	83 µM (inactive)	65.8 µM (inactive)	43.2 µM (inactive)	67.3 µM (inactive)	–	93.8 µM (inactive)	2.84 µM (inactive)	–	–
COC1/C=C\C=C(/C)C(=O)NC2=CC(=O)C(NCCCl)=C(CC(C)CC(OC)C(O)C(C)/C=C(/C)C1OC(N)=O)C2=O (stereo unspecified)	0.655 µM (active)	0.053 µM (active)	0.0266 µM (active)	0.0308 µM (active)	0.0296 µM (active)	0.659 µM (active)	0.0134 µM (active)	0.0298 µM (active)	–
c1ccc2c(c1)OCCc1cn[nH]c1-2	> 100 µM (inactive)	> 100 µM (inactive)	> 100 µM (inactive)	> 43.5 µM (inactive)	99.1 µM (inactive)	52.2 µM (inactive)	> 100 µM (inactive)	–	–
CC(=O)c1c(P(=O)(OC(C)C)OC(C)C)nn(-c2ccc([N+](=O)[O-])cc2)c1C	> 100 µM (inactive)	> 100 µM (inactive)	> 100 µM (inactive)	–	> 100 µM (inactive)	> 100 µM (inactive)	> 100 µM (inactive)	> 100 µM (inactive)	–
CCOC(=O)Nc1cc2nnc(-c3ccccc3)nc2c(N)n1	–	7.36 µM (inactive)	18.6 µM (inactive)	–	27.6 µM (inactive)	31.4 µM (inactive)	4.25 µM (inactive)	32.1 µM (inactive)	–
